{"source": "patent US20240238426A1", "about": "“PROTEIN ACYLATION MODULATION BY HETEROBIFUNCTIONAL MOLECULES” (THE SCRIPPS RESEARCH INSTITUTE, priority 2021, published 2024)", "key": {"[1]": {"biological_target": "T1, FKBP12^F36V and the bromodomain of p300 (BRD-p300) (Homo sapiens, UniProt P62942+Q09472, F37V)", "T1 construct": "A construct containing residues 2-108 of FKBP12^F36V in pGEX4t-1 vector; the BRD domain of p300 (BRD-p300); purchased) 31372; host or cells: E. coli BL21(DE3) (GST-FKBP12^F36V)", "T1 sequence (P62942 2-108 F37V)": "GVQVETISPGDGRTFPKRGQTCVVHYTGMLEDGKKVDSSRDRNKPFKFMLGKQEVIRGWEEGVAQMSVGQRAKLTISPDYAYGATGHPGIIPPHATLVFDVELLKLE", "T1 sequence (Q09472 1049-1156)": "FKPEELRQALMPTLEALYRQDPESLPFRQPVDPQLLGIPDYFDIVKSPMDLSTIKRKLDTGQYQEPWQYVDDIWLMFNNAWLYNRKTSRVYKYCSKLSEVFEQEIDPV", "assay": "GST-FKBP12^F36V/His-P300-BRD AlphaScreen assay, ternary complex formation", "assay_type": "binding", "settings": "FIG. 3B", "experimental": "GST-FKBP12^F36V/His-P300-BRD AlphaScreen Assay: GST-FKBP12^F36V and 6xHis-p300-BRD (active motif #31372) were diluted to 250 nM and 500 nM, in assay buffer (50 mM HEPES pH 7.4, 200 mM NaCl, 1 mM TCEP, and 0.1% BSA), […] of protein mixture was added to each well of a 1/2 area 96-well OptiPlate (PerkinElmer). Compounds were then added from DMSO stock to protein mixture ([…]) with 1% DMSO in final mixture. Plates were then shaken orbitally at room temperature for 1 h. Nickel Chelate AlphaLISA Acceptor and Glutathione AlphaLISA Donor beads (PerkinElmer) diluted to 20 ng/ml in assay buffer and […] beads mixture was added to each well. After a 1 h orbital shaking at room temperature. luminescence was measured on the Envision 2104 plate reader (PerkinElmer). Data were plotted and analyzed using GraphPad PRISM v8 and fit with ‘Bell-shaped’ dose response curve."}, "[2]": {"tested_on": "p21 (CDKNIA), PUMA, MDM2, and GLS2", "assay": "Immunoblot of p53 target gene expression in FKBP12^F36V-p53 H1299 cells", "assay_type": "cell-based, Human", "experimental": "Immunoblotting: Cells were harvested in cold DPBS by scraping and washed with cold DPBS twice. Cell pellets were resuspended in DPBS supplemented with 5 mM sodium butyrate, 20 mM Nicotinamide, and 1X Halt Protease Inhibitor Cocktail and lysed by sonication (15 ms on, 40 ms off, 15% amplitude, 1s total on x 3). Protein concentration was determined using DC Protein Assay (Bio-Rad) and absorbance read using a CLARIOstar plate reader following manufacturer's instructions. Samples with equal protein content were boiled in 4X SDS gel loading buffer for 10 min. Proteins were separated by 10%, 12.5%, or 15% SDS-polyacrylamide gel electrophoresis and transferred to PVDF membranes using Trans-Blot Turbo RTA Mini […] LF PVDF Transfer Kit (Bio-Rad). Membranes were incubated for 1 h at room temperature with blocking buffer, followed by incubating overnight at 4° C. with primary antibodies. After washing in TBST, the secondary antibodies were incubated with the membranes at room temperature for 1 h. The membranes were washed with TBST for three times and visualized on a Bio-Rad ChemiDoc MP Imaging System with Clarity Max Western ECL substrate (Bio-Rad) or SuperSignal West Femto Chemiluminescent substrate proprietary luminol and peroxide solution kit (Thermo Scientific Pierce)."}, "[3]": {"tested_on": "p21", "assay": "qPCR analysis of p21 mRNA level in FKBP12^F36V-p53 H1299 cells", "assay_type": "cell-based, Human", "settings": "indicated doses, 8 hr, FIG. 7C"}}, "data": [{"compound": "CC[C@H](C(=O)N1CCCC[C@H]1C(=O)O[C@H](CCc1ccc(OC)c(OC)c1)c1cccc(OCC(=O)NCCOCCOCCC(=O)NCCOc2ccc(CCc3nc4cc(-c5c(C)noc5C)ccc4n3CCN3CCOCC3)cc2)c1)c1cc(OC)c(OC)c(OC)c1", "note": "[AceTAG-1, (R)-3-(3,4-dimethoxyphenyl)-1-(3-((15-(4-(2-(5-(3,5-dimethylisoxazol-4-yl)-1-(2-morpholinoethyl)-1H-benzo[d]imidazol-2-yl)ethyl)phenoxy)-2,12-dioxo-6,9-dioxa-3,13-diazapentadecyl)oxy)phenyl)propyl (S)-1-((S)-2-(3,4,5-trimethoxyphenyl)butanoyl)piperidine-2-carboxylate]", "values": [{"measurement": "concentration of maximum complex formation", "setting": "[1]; FKBP12^F36V and BRD-p300, AlphaScreen", "value": "~1", "unit": "µM"}, {"measurement": "AceTAG-mediated ternary complex formation (AlphaScreen curve)", "setting": "[1]; bell-shaped dose response fit", "value": "increased potence relative to other analogues"}, {"measurement": "p21 expression level at higher concentration", "setting": "[2]; FIGS. 7A and 7B", "value": "reflected the ‘hook effect’"}, {"measurement": "p21 expression", "setting": "[2]; indicated doses, 8 hr and 24 hr exposure, FIGS. 7A and 7B", "value": "strong dose-dependent expression"}, {"measurement": "expression of PUMA, MDM2, and GLS2", "setting": "[2]; indicated doses, FIG. 7A", "value": "insignificant effects"}, {"measurement": "transcription of p21 (mRNA, qPCR)", "setting": "[3]", "value": "confirmed"}]}]}
